Key:
[1] = system: myosin heavy chain (MHC) IIb mRNA; test: Myosin heavy chain (MHC) IIb mRNA expression in masseter muscle by RT-PCR; assay type: in vivo, rat; settings: intact female rats, untreated control = 100%
From the text: MHC is the predominant protein in skeletal muscle encoded by a multigene family expressed in a tissue-specific and developmentally regulated manner. In steady state, MRNA expression usually parallels the pattern of MHC protein expression. Because transcription of MHC MRNA occurs in advance of MHC protein translation, and the increased sensitivity of RT-PCR compared to western blotting, rapid changes in mRNA expression can be detected and used to analyze the subtle dynamic effects of muscle anabolism.
The masseter muscle dissected from untreated intact female rats was set as the control level (representing 100%) of MHC IIb expression (FIG. 1A). Intact female rats treated with androgens were evaluated against the untreated controls for the effect of treatment on MHC IIb from masseter.

[2] = system: ovariectomized female rats; test: Bone mineral content by whole body DEXA after ovariectomy (Example 2); assay type: in vivo, rat; settings: OVX female rats, 30 day treatment period
castrated male rats = test: Androgenic and anabolic effects in castrated male rats; assay type: in vivo, rat
[3] = system: ovariectomized (OVX) rat model of postmenopausal bone loss; test: Whole body DEXA analysis (BMD, percent fat mass, body weight) in OVX rat model; assay type: in vivo; settings: for change in whole body BMD between day 0 and day 120: 120 days; for body weight gain: day 0 to 120
Method: (§1) One hundred twenty female Sprague-Dawley rats were purchased from Harlan (Indiapolis, Ind.). The animals were housed three per cage and were allowed free access to tap water and commercial rat chow (Harlan Teklad 22/5 rodent diet—8640). During the course of the study, the animals were maintained on a 12 hr light:dark cycle. This study was reviewed and approved by the Institutional Laboratory Care and Use Committee of The Ohio State University. […] Dosing solutions were prepared daily by dissolving drug in dimethyl sulfoxide (DMSO) and diluting in polyethylene glycol 300 (PEG 300). All doses were administered for 120 days via daily subcutaneous injections in a volume of 0.20 ml.
Total body bone mineral density (BMD), percent fat mass (FM), and body weight (BW) were determined by dual energy x-ray absorptiometry (DEXA) (GE, Lunar Prodigy™) using the small animal software (Lunar enCORE, version 6.60.041) on days 0 and 120. Total body data was obtained by selecting an area encompassing the entire animal as the region of interest during data processing. For scanning, the animals were anesthetized with ketariine:xylazine (87:13 mg/kg).
(§2) The results were analyzed using Tukey's honestly significant difference method in a one-way analysis of variance and expressed as mean ±S.E.M. Significance was reported when P<0.05. SPSS 11.5.0 (Chicago, Ill.) was used to analyze the results.

[4] = system: ovariectomized (OVX) rat model of postmenopausal bone loss; test: Ex vivo DEXA analysis of L2-L4 vertebrae BMD; assay type: in vivo; settings: 120 days
Method: as §1
Immediately following the whole body DEXA scan on day 120, groups 1-11 were sacrificed, and the lumbar vertebrae, femurs, and tibia were excised and cleared of soft tissue. Group 12 was sacrificed at day 210. The excised bones were scanned through a 3 in deep room temperature water bath, to simulate soft tissue and prevent beam-hardening effects. The L2-L4 vertebrae were selected as a region of interest and analyzed for BMD by DEXA.
as §2

[5] = system: ovariectomized (OVX) rat model of postmenopausal bone loss; test: Femoral pQCT analysis of mid-shaft cortical content; assay type: in vivo; settings: 120 days
Method: as §1
(§3) The right femurs from groups 5, 6, 7, 9, 10, and 12 were sent to Skeletech, Inc. (Bothell, Wash.) for pQCT analysis and biomechanical testing. The femur was subject to pQCT scan using a Stratec XCT RM and associated software (Stratec Medizintechnik GmbH, Pforzheim, Germany. Software version 5.40 C). The femur was scanned at the mid-shaft. The position was verified using scout views and scan results from one 0.5 mm slice perpendicular to the long axis of the femur. Cortical bone mineral content was analyzed. After pQCT analysis, the de-fleshed whole femur was used in the three point bending test. The femur was placed on the lower supports of a three point bending fixture with anterior side facing downward in an Instron Mechanical Testing Machine (Instron 4465 retrofitted to 5500). The upper loading device was aligned to the center of the femoral shaft. The load was applied at a constant displacement rate of 6 mm/min until the femur broke. The location of maximal load was selected manually and values were calculated by machine's software (Merlin II, Instron). Maximum load was measured directly by the mechanical testing machine. The length between two supports was set to 14mm.
as §2

[6] = system: ovariectomized (OVX) rat model of postmenopausal bone loss; test: Femoral three point bending test (maximum load); assay type: in vivo; settings: OVX rats, 120 days
Method: as §1, §3
The results were analyzed using Tukey's honestly significant difference method in a one-way analysis of variance and expressed as mean ±S.E.M. Significance was reported when P<0.05. […]

CC(=O)Nc1ccc(OC[C@](C)(O)C(=O)Nc2ccc([N+](=O)[O-])c(C(F)(F)F)c2)cc1 [Compound VI, S-3-(4-acetylamino-phenoxy)-2-hydroxy-2-methyl-N-(4-nitro-3-trifluoromethyl-phenyl)-propionamide]
transcription of MHC type IIb, % of untreated control [1]: 137% | bone mineral content compared with intact control or placebo-treated groups [2]: maintained and improved the bone mineral content | prostate restored, % of intact animals (castrated male rats): 34% | seminal vesicles restored, % of intact animals (castrated male rats): 28% | change in whole body BMD between day 0 and day 120 ([3]; OVX rats, 0.1 mg/day sc): not significantly different from OVX controls | percent body fat at day 120 ([3]; OVX rats, 3.0 mg/day): not different from intact controls | body weight gain ([3]; OVX rats, 3.0 mg/day): gained more weight than the other groups | percent fat mass at day 120 ([3]; OVX rats, 0.1-3.0 mg/day): dose dependent decrease in percent fat mass | body weight gain ([3]; OVX rats, 0.1-3.0 mg/day): dose-dependent trend in body weight gain | change in whole body BMD between day 0 and day 120 ([3]; OVX rats, doses greater than 0.1 mg/day sc): prevent the loss of whole body BMD | mean percent fat mass at day 120 ([3]; intact rats, 1 mg/day): lower in intact Compound VI treated animals than intact controls | L2-L4 BMD ([4]; OVX rats, 0.5 and 3.0 mg/kg dose groups): significantly higher BMD than the OVX control group | L2-L4 BMD ([4]; OVX rats, greater than 0.3 mg/day): not significantly different from intact controls | Cortical Content (CC) of mid-shaft femur ([5]; OVX rats, 1.0 mg/day): completely prevent the loss in CC | Cortical Content (CC) of mid-shaft femur ([5]; OVX rats, 3.0 mg/day): increase the CC in OVX animals above that of intact animals | Cortical Content (CC) of mid-shaft femur ([5]; intact rats, 1 mg/day): not different from intact controls | femur biomechanical strength (maximum load) ([6]; 1.0 mg/day): prevent the loss of bone strength | femur biomechanical strength (maximum load) ([6]; 3.0 mg/day): increase in maximum load

CCC(=O)O[C@H]1CC[C@H]2[C@@H]3CCC4=CC(=O)CC[C@]4(C)[C@H]3CC[C@]12C [testosterone propionate, reference compound]
transcription of MHC type IIb, % of untreated control [1]: 133%

C[C@]12CCC(=O)C[C@@H]1CC[C@@H]1[C@@H]2CC[C@]2(C)[C@@H](O)CC[C@@H]12 [DHT, dihydrotestosterone, reference compound]
change in whole body BMD between day 0 and day 120 ([3]; OVX rats, DHT 1 mg/day sc): not significantly different from OVX controls | change in whole body BMD between day 0 and day 120 ([3]; intact rats, DHT 1 mg/day sc): prevented the age related increase in BMD | L2-L4 BMD ([4]; OVX rats, DHT 1 mg/day): only able to partially maintain the L2-L4 BMD | L2-L4 BMD ([4]; intact rats, DHT 1 mg/day): caused a reduction in L2-L4 BMD | Cortical Content (CC) of mid-shaft femur ([5]; OVX rats, DHT 1 mg/day): partially prevented the loss in CC, these results were not significant | femur biomechanical strength (maximum load) ([6]; DHT 1 mg/day): prevent the loss in bone strength
